According to the NIST ThermoML archive (doi:10.1016/j.jct.2005.03.012):

Experiment: molar heat capacity at constant pressure
Details: Liquid, Flow calorimetry

CO [methanol]
molar heat capacity at constant pressure [J/K/mol]
Details	248.15 K	273.15 K	298.15 K	323.15 K	348.15 K	373.15 K	398.15 K	423.15 K	473.15 K
500 kPa	74.02	77.03	81.39	86.87	93.66	101.83	–	–	–
1000 kPa	74.02	77	81.35	86.8	93.59	101.76	111.86	–	–
2500 kPa	73.95	76.93	81.19	86.64	93.43	101.41	111.28	122.98	–
5000 kPa	73.89	76.84	81.07	86.45	93.18	101	110.38	121.41	162.32
7500 kPa	73.79	76.8	81.03	86.29	92.92	100.64	109.58	120.03	152.94
10000 kPa	73.79	76.77	80.91	86.13	92.73	100.23	108.97	118.84	146.91
12500 kPa	73.76	76.74	80.91	86	92.41	99.97	108.33	117.85	142.75
